Measured values from patent US20230142913A1, “TRICYCLIC HETEROARENES, PHARMACEUTICAL COMPOSITIONS CONTAINING THE SAME, AND METHODS OF USING THE SAME” (priority 2021, published 2023).
Like-named read-outs stand apart in the source and are kept apart here.

Target: T1, recombinant human Myt1 (full length PKMYT1) (Homo sapiens, UniProt Q99640)
T1 sequence (Q99640 1-499): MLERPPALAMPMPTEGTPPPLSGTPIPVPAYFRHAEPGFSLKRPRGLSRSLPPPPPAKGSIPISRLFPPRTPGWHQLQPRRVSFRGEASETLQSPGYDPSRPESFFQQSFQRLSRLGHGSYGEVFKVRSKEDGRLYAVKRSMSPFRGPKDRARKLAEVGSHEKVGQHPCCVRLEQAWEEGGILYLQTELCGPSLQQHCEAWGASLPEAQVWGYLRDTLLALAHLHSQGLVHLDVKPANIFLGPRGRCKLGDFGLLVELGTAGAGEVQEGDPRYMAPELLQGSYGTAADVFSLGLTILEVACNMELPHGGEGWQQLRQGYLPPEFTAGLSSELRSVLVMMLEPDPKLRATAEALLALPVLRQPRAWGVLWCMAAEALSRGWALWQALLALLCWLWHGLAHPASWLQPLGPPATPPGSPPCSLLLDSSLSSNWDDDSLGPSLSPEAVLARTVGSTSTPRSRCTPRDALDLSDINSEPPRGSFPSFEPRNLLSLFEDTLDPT
Assay: Recombinant human Myt1 kinase assay (ADP-Glo)

[1] = read-out: Myt1 IC50, recombinant human Myt1 18 nM, ATP 10 μM, ADP-Glo luminescence
[2] = Myt1 IC50 (nM), recombinant human Myt1 18 nM, ATP 10 μM, ADP-Glo luminescence

Experimental: Detection of Myt1 kinase activity utilized a recombinant human Myt1 kinase assay measuring the hydrolysis of ATP using a commercially available ADP-Glo Assay (ADP-Glo™ Kinase Assay from Promega, 10 000 assays, #V9102). […] After this, 5 μL of compounds (diluted in reaction buffer to 0.5% DMSO) was added to the microplate and the plate was spun briefly and incubated at 22° C. for 15 minutes. […] Luminescence was read using the Envision (250 ms integration). The IC50 and the % max inhibition were calculated for each inhibitor compound tested.

IC50 [nM]	Compound	other results
	2-amino-1-(3-hydroxy-2,6-dimethyl-phenyl)-7-(1-hydroxy-1-methyl-ethyl)pyrrolo[3,2-b]quinoxaline-3-carboxamide or 2-amino-1-(3-hydroxy-2,6-dimethyl-phenyl)-6-(1-hydroxy-1-methyl-ethyl)pyrrolo[3,2-b]quinoxaline-3-carboxamide [Compound 67]	IC50 [1]: 10 nM
	2-amino-1-(3-hydroxy-2,6-dimethyl-phenyl)-7-(morpholine-4-carbonyl)pyrrolo[3,2-b]quinoxaline-3-carboxamide or 2-amino-1-(3-hydroxy-2,6-dimethyl-phenyl)-6-(morpholine-4-carbonyl)pyrrolo[3,2-b]quinoxaline-3-carboxamide [Compound 66]	IC50 [1]: 13 nM
	2-amino-1-(3-hydroxy-2,6-dimethylphenyl)-1H-pyrido[2,3-b]pyrrolo[2,3-e]pyrazine-3-carboxamide or 2-amino-1-(3-hydroxy-2,6-dimethylphenyl)-1H-pyrido[2,3-b]pyrrolo[3,2-e]pyrazine-3-carboxamide [Compound 82]	IC50 [1]: 21 nM
	2-amino-7-bromo-1-(3-hydroxy-2,6-dimethylphenyl)-1H-pyrido[2,3-b]pyrrolo[2,3-e]pyrazine-3-carboxamide or 2-amino-6-bromo-1-(3-hydroxy-2,6-dimethylphenyl)-1H-pyrido[2,3-b]pyrrolo[3,2-e]pyrazine-3-carboxamide [Compound 79]	IC50 [1]: 30 nM
130	NC(=O)c1c(N)n(-c2cc(O)ccc2Cl)c2nc3ccccc3nc12 [Compound 4]	
289	NC(=O)c1c(N)n(-c2cccc3[nH]nc(Cl)c23)c2nc3ccccc3nc12 [Compound 8]	
281	NC(=O)c1c(N)n(-c2cccc3[nH]nc(F)c23)c2nc3ccccc3nc12 [Compound 9]	
2170	Cc1ccc(O)c(C2CC2)c1-n1c(N)c(C(N)=O)c2nc3ccccc3nc21 [Compound 11]	
98	CCc1c(O)ccc(C)c1-n1c(N)c(C(N)=O)c2nc3ccccc3nc21 [Compound 12]	
427	CCc1ccc(O)c(C)c1-n1c(N)c(C(N)=O)c2nc3ccccc3nc21 [Compound 13]	
94	Cc1ccc(O)cc1-n1c(N)c(C(N)=O)c2nc3nc(N)sc3nc21 [Compound 16, 2,6-diamino-5-(5-hydroxy-2-methylphenyl)-5H-pyrrolo[2,3-b]thiazolo[4,5-e]pyrazine-7-carboxamide]	
7580	Cc1ccc(O)cc1-n1c(N)c(C(=O)NC2CC2)c2nc3ccccc3nc21 [Compound 20, 2-amino-N-cyclopropyl-1-(5-hydroxy-2-methylphenyl)-1H-pyrrolo[2,3-b]quinoxaline-3-carboxamide]	
323	Cc1ccc(O)cc1-n1cc(C(N)=O)c2nc3ccccc3nc21 [Compound 23]	
< 10	Cc1ccc(O)c(C)c1-n1c(N)c(C(N)=O)c2nc3c(F)ccc(F)c3nc21 [Compound 28]	
16	Cc1ccc(O)c(C)c1-n1c(N)c(C(N)=O)c2nc3c(C#CC4CC4)cccc3nc21 [Compound 33]	
12	Cc1ccc(O)c(C)c1-n1c(N)c(C(N)=O)c2nc3c(C4=CCOCC4)cccc3nc21 [Compound 34]	
< 10	Cc1ccc(O)c(C)c1-n1c(N)c(C(N)=O)c2nc3c(-c4cccn4C)cccc3nc21 [Compound 35]	
17	Cc1ccc(O)c(C)c1-n1c(N)c(C(N)=O)c2nc3c(-c4ccccc4)cccc3nc21 [Compound 36]	
	Cc1ccc(O)c(C)c1-n1c(N)c(C(N)=O)c2nc3cc(Br)ccc3nc21 [Compound 38, 2-amino-6-bromo-1-(3-hydroxy-2,6-dimethyl-phenyl)pyrrolo[2,3-b]quinoxaline-3-carboxamide]	IC50 [2]: < 10 nM

IC50 [nM]	Compound	other results
< 10	Cc1ccc(O)c(C)c1-n1c(N)c(C(N)=O)c2nc3cc(C#CC4CC4)ccc3nc21 [Compound 40]	
< 10	Cc1ccc(O)c(C)c1-n1c(N)c(C(N)=O)c2nc3cc(C#Cc4cnccn4)ccc3nc21 [Compound 43]	
< 10	Cc1ccc(O)c(C)c1-n1c(N)c(C(N)=O)c2nc3cc(C#CCN4CCOCC4)ccc3nc21 [Compound 44]	
< 10	Cc1ccc(O)c(C)c1-n1c(N)c(C(N)=O)c2nc3cc(C#CCO)ccc3nc21 [Compound 45, 2-amino-1-(3-hydroxy-2,6-dimethyl-phenyl)-6-(3-hydroxyprop-1-ynyl)pyrrolo[2,3-b]quinoxaline-3-carboxamide]	
< 10	Cc1ccc(O)c(C)c1-n1c(N)c(C(N)=O)c2nc3cc(CCCO)ccc3nc21 [Compound 46, 2-amino-1-(3-hydroxy-2,6-dimethyl-phenyl)-6-(3-hydroxypropyl)pyrrolo[2,3-b]quinoxaline-3-carboxamide]	
< 10	Cc1ccc(O)c(C)c1-n1c(N)c(C(N)=O)c2nc3cc(-c4ccccc4)ccc3nc21 [Compound 47]	
11	Cc1ccc(O)c(C)c1-n1c(N)c(C(N)=O)c2nc3cc(-c4cccc(C#N)c4)ccc3nc21 [Compound 48]	
< 10	Cc1ccc(O)c(C)c1-n1c(N)c(C(N)=O)c2nc3cc(C4=CCOCC4)ccc3nc21 [Compound 51]	
< 10	Cc1ccc(O)c(C)c1-n1c(N)c(C(N)=O)c2nc3cc(-c4ccc(N5CCN(CCO)CC5)cc4)ccc3nc21 [Compound 52]	
< 10	Cc1ccc(O)c(C)c1-n1c(N)c(C(N)=O)c2nc3cc(-c4cn[nH]c4)ccc3nc21 [Compound 54]	
11	Cc1ccc(O)c(C)c1-n1c(N)c(C(N)=O)c2nc3ccc(C#CCO)cc3nc21 [Compound 58]	
	Cc1ccc(O)c(C)c1-n1c(N)c(C(N)=O)c2nc3cccc(Br)c3nc21 [Compound 59, 2-amino-8-bromo-1-(3-hydroxy-2,6-dimethyl-phenyl)pyrrolo[3,2-b]quinoxaline-3-carboxamide]	IC50 [2]: < 10 nM
	Cc1ccc(O)c(C)c1-n1c(N)c(C(N)=O)c2nc3cccc(-c4ccnn4C)c3nc21 [Compound 61]	IC50 [2]: < 10 nM
	Cc1ccc(O)c(C)c1-n1c(N)c(C(N)=O)c2nc3cccc(C4=CCCC4)c3nc21 [Compound 62]	IC50 [2]: < 10 nM
13	C=C(C)c1ccc2nc3c(C(N)=O)c(N)n(-c4c(C)ccc(O)c4C)c3nc2c1 [Compound 68, 2-amino-1-(3-hydroxy-2,6-dimethyl-phenyl)-7-isopropenyl-pyrrolo[3,2-b]quinoxaline-3-carboxamide or either 2-amino-1-(3-hydroxy-2,6-dimethyl-phenyl)-6-isopropenyl-pyrrolo[3,2-b]quinoxaline-3-carboxamide]	
11	Cc1ccc(O)c(C)c1-n1c(N)c(C(N)=O)c2nc3c(nc21)CCCC3 [Compound 84]	
48900	Cc1c(O)ccc(C2CC2)c1-n1c(N)c(C(N)=O)c2nc3ccccc3nc21 [Compound 85]	
32	Cc1ccc(O)c(C)c1-n1cc(C(N)=O)c2c3ccccc3cnc21 [Compound 88, 3-(3-hydroxy-2,6-dimethylphenyl)-3H-pyrrolo[2,3-c]isoquinoline-1-carboxamide]	
31	Cc1ccc(O)c(C)c1-n1cc(C(N)=O)c2cc3c(cnn3C)nc21 [Compound 89, 5-(3-hydroxy-2,6-dimethylphenyl)-1-methyl-1,5-dihydropyrazolo[4,3-b]pyrrolo[3,2-e]pyridine-7-carboxamide]	
